Reference: patent US20230212571A1, “COMPOSITIONS AND METHODS FOR DELIVERING POLYNUCLEOTIDES” (NeOnc Technologies, Inc., priority 2020, published 2023)

Experiments:
BEC = assay: ELISA of control BEC supernatants; type: cell-based, human; settings: control BEC supernatants, normoxia
Source text: (§1) Human surgical specimens were obtained following written informed consent from patients in accordance with Declaration of Helsinki guidelines and the Institutional Review Board (HS-04B053), at Keck School of Medicine, USC. AVM-BECs were isolated from brain tissues of patients who underwent microsurgical AVM resection. Control BECs were isolated from the structurally normal […] of patients who underwent temporal lobectomy for intractable epilepsy. Endothelial cell (EC) isolation and culture were described^5,9. (Stapleton C J, Armstrong D L, Zidovetzki R, Liu C Y, Giannotta S L, Hofman F M. Thrombospondin-1 modulates the angiogenic phenotype of human cerebral arteriovenous malformation endothelial cells. Neurosurgery. 2011; 68(5):1342-1353) (Ferreira R, Santos T, Amar A, et al. Argonaute-2 promotes miR-18a entry in human brain endothelial cells. J Am Heart Assoc. 2014; 3(3):e000968) ECs were only used between passages 3-5. Experiments were performed under shear flow conditions (12 dyn/cm^2) to reproduce arterial flow^6. (Ferreira R, Santos T, Amar A, et al. MicroRNA-18a improves human cerebral arteriovenous malformation endothelial cell function. Stroke. 2014; 45(1):293-297). For hypoxic experiments, cells were cultured in a Galaxy 48R (Eppendorf) incubator at 3% O2. MicroRNAs were co-administered with Ago-2 to increase the cellular uptake of miR-18a^9 (Ferreira R, Santos T, Amar A, et al. Argonaute-2 promotes miR-18a entry in human brain endothelial cells. J Am Heart Assoc. 2014; 3(3):e000968) (FIG. 9). Methods regarding cell treatments and transfections were included in Data.
(§2) Small interfering RNA transfection was performed as previously described^5. Briefly, ECs were transfected with small interfering RNA (siRNA) against ID1 or PAI-1 (Thermo Fisher Scientific), or small interfering control (Santa Cruz Biotechnology) constructs using Lipofectamine RNAiMax (Thermo Fisher Scientific) per the manufacturer's instructions. Knockdown of ID1 or PAI-1 was confirmed by quantitative real-time polymerase chain reaction as described^6 (FIG. 19). The sequences of the forward and reverse primers for ID1 and PAI-1 were included in Table 2.
(§3) Plasmid constructs pcDNA3-ALK2^WT (Addgene #80870) and pcDNA3-ALK2^Q207D (Addgene #80871) were a gift from Aristidis Moustakas^7. (Meyer B, Schaller C, Frenkel C, Ebeling B, Schramm J. Distributions of local oxygen saturation and its response to changes of mean arterial blood pressure in the cerebral cortex adjacent to arteriovenous malformations. Stroke. 1999; 30(12):2623-2630) 10^4 AVM-BEC were seeded 24 h before transfection. The plasmid vector containing the 3′ untranslated region (3′UTR) of human BMP4, pRP [Exp]-Puro-CMV>Luciferase:{hBMP4_3′UTR}, was constructed and packaged by VectorBuilder. The vector ID is VB200205-1078zdv, which can be used to retrieve detailed information about the vector on vectorbuilder.com. Transient transfections were performed with Lipofectamine RNAiMax (Thermo Fisher Scientific) according to the manufacturer's instructions. After 4 h, medium was replaced by fresh medium containing microRNA.
(§4) MiR-18a (hsa-miR-18a-5p, 40 nM, Dharmacon) or a scramble microRNA (40 nM, Dharmacon) in nuclease-free water was added with argonaute 2 (Ago-2, 0.4 nM, Abcam) as the microRNA carrier and stabilizer^9. (Ferreira R, Santos T, Amar A, et al. Argonaute-2 promotes miR-18a entry in human brain endothelial cells. J Am Heart Assoc. 2014; 3(3):e000968). No transfection reagent was used with miR-18a or scramble microRNA treatments. Recombinant human TSP-1 (R&D Systems) stock solution was prepared in PBS and further diluted in culture medium to be used at a final concentration of 1000 ng/mL. Cells were treated during 24 h for mRNA and 48 h for protein expression studies. NEO100 (NeOnc Technologies) stock was prepared in DMSO and used immediately or stored at −20° C. […]

AVM-BEC [1] = settings: previous studies (Stapleton 2011); cited from earlier work
AVM-BEC [2] = assay: ELISA of AVM-BEC supernatants; type: cell-based, human
Source text: as §1, §2, §3, §4

TSP-1: Recombinant human TSP-1 (R&D Systems), used at 1000 ng/mL
levels of secreted PAI-1 (BEC): without affecting control BEC
levels of secreted VEGF (BEC): without affecting control BEC
migration rate of AVM-BEC (AVM-BEC [1]): decreases their migration rate
levels of secreted PAI-1 (AVM-BEC [2]; AVM-BEC supernatants, normoxia, vs scramble microRNA): decreased
levels of secreted VEGF (AVM-BEC [2]; AVM-BEC supernatants, normoxia, decrease only reached significance with miR-18a): decreased
PAI-1 secretion (AVM-BEC [2]; AVM-BEC, hypoxia 3% oxygen): neither treatment with TSP-1 (P=0.3917), nor ID1 knock-down (P=0.1701) were able to significantly decrease the levels of PAI-1
